Measured values: patent publication US20250152557A1, “METHODS FOR TREATING SUBJECTS WITH ABDOMINAL OBESITY […] AND/OR IMPAIRED GLUCOSE” (NOVO NORDISK A/S, priority 2022, published 2025)

Experiments:
[1] = tested on: DIO mouse model; experiment: Effect on body weight and metabolic parameters in DIO mouse model; assay type: in vivo
Excerpt: The effect of INV-202 on body weight and food consumption was studied in a DIO mouse model.

[2] = tested on: subjects with metabolic syndrome; experiment: Phase 1b study, Columbia Suicidality Severity Rating Scale (C-SSRS); assay type: in vivo, human; conditions: INV-202 group, EOT; 25 mg oral daily for 28 days
Excerpt: A suicide risk assessment will be performed using the C-SSRS questionnaire at screening, Day −1 (if more than 21 days have passed since the screening C-SSRS), Day 29 (+2 days) and at the FU Visit/EOS/ET on Day 35 (+2 days).
This scale will be administered by a member of the medical team, completed on site, and will be on paper. The “Lifetime” C-SSRS questionnaire template will be used at the screening visit and on Day −1 (if applicable), and the “since last visit” C-SSRS questionnaire template will be used on Day 29 (+2 days) and at the FU Visit/EOS/ET. If the Investigator determines that a subject is at risk of suicide or self-harm, he/she must immediately be discontinued from the study and appropriate measures to ensure the subject's safety and obtain mental health evaluation must be implemented. The event should be recorded as either an AE or a SAE, as determined by the Investigator, and reported within 24 hours to the Sponsor.

[3] = tested on: subjects with metabolic syndrome; experiment: Phase 1b study, pharmacodynamic effects of INV-202 over 28 days (weight, waist, lipids, glucose, endocrine and renal markers); assay type: in vivo, human
Procedure: A phase 1b study to examine the pharmacokinetic and pharmacodynamic effects of INV-202 in subjects with metabolic syndrome as defined by hypertriglyceridemia, abdominal obesity, and impaired glucose tolerance over 28 days was performed.
This is single center, Phase 1B, randomized, double-blind, placebo-controlled, 28-day repeat dose study.
The study includes subjects with evidence of metabolic syndrome and glucose intolerance that are randomized 1:1 to receive either INV-202 or placebo. 20 subjects will receive 25 mg of INV-202 and 20 subjects will receive a matching placebo daily for 28 consecutive days, for a total of 40 subjects.
Subjects will receive a daily oral dose of INV-202 25 mg or a matching placebo for 28 consecutive days.
Body measurements performed at screening will include height and weight measurements, waist circumference, as well as BMI calculation. Height will only be measured at screening. Weight and waist circumference will also be measured pre-dose on Days 1, 8, 15, and 22, and on Day 29 (+2 days). BMI will be calculated as needed.
Weight and waist circumference will be measured in triplicate using a standard measuring method. The same scale should be used at all visits for a given subject. The scale should be calibrated according to the manufacturer's recommendation. A medical grade scale for weight should be used.
(§1) The following will be assessed: sodium, potassium, chloride, glucose, blood urea nitrogen, creatinine, creatinine clearance, direct bilirubin, indirect bilirubin, bilirubin total, ALP, AST, ALT, albumin, lactate dehydrogenase, calcium, lipase, amylase, phosphorus, HbA1C, serum ferritin and total protein.
In addition, a lipid profile will also be assessed: total cholesterol, HDL, LDL, VLDL and triglycerides. […]
The following will be assessed only pre-dose on Days 1, 8, 15, and 22, on Day 29 (+2 days), and at the FU Visit/EOS/ET on Day 35 (+2 days): C-peptide, insulin, TSH, and T4.
The OGTT will be performed at screening, on Day −1, and on Day 29 (+2 days). The OGTT will not need to be performed at screening if there is evidence of HbA1C≥5.7% but ≤6.4% obtained within the last 3 months.
For the OGTT performed on Day 29 (+2 days), a 75 g glucose load will be administered with blood draws at 30 minutes, 1 hour, 2 hours and 3 hours post-intake.
The following PD parameters will be evaluated: • 1) 0-3 hour AUC blood glucose level during OGTT • 2) Plasma insulin level—change from baseline to EOS/ET • 3) C-peptide level—change from baseline to EOS/ET • 4) Plasma lipid profile (HDL, LDL, VLDL, triglycerides)—change from baseline to EOS/ET • 5) Adiponectin and leptin—change from baseline to EOS/ET • 6) hs-CRP—change from baseline to EOS/ET • 7) Weight—change from baseline to EOS/ET • 8) Waist circumference—change from baseline to EOT/ET • 9) Appetite and Food Intake questionnaire score—change from baseline to EOT/ET • 10) Urine albumin to creatinine ratio—change from baseline to EOS/ET
All PD analyses will be descriptive only and no formal statistical analysis is planned. Descriptive statistics will be used to describe change from baseline in values including glucose AUC during OGTT, fasting insulin level and C-peptide levels, lipids (e.g., triglycerides, HDL), adiponectin and other biomarkers. Exploratory analysis in PD versus AEs may be performed to evaluate the Exposure-Response.

[4] = tested on: subjects with metabolic syndrome; experiment: Phase 1b study, liver safety (liver chemistry); assay type: in vivo, human
Excerpt: as §1
The hepatic safety of all randomized subjects will be assessed through the use of the following algorithm based on FDA DILI management guidelines (Center for Drug Evaluation and Research (CDER), FDA. Guidance for Industry: Drug-Induced Liver Injury: Premarketing Clinical Evaluation. July 2009).
An increase of serum ALT or AST>3×ULN should be followed by repeat testing within 48 to 72 hours of all four of the usual serum measures (ALT, AST, ALP, and TBL) to confirm the abnormalities and to determine if they are increasing or decreasing. There also should be inquiry made about symptoms.

[5] = tested on: subjects with metabolic syndrome; experiment: Phase 1b study, vital signs; assay type: in vivo, human; conditions: 25 mg oral daily for 28 days
Excerpt: BP, HR, RR and OT will be measured at screening and pre-dose on Days 1, 8, 15, and 22, on Day 29 (+2 days), and at the FU Visit/EOS/ET on Day 35 (+2 days). Vital signs will be measured in a sitting position (except for safety reasons and when ECG are planned around the same time). When vital signs measurements coincide with a blood draw, they should preferably be performed before the blood collection, whenever possible.

[6] = background statement, cited from earlier work
[7] = following 28-days of repeat dosing
[8] = 25 mg oral daily for 28 days, SD in next cell
[9] = 25 mg oral daily for 28 days, Table 3, SD in next cell
[10] = 25 mg oral daily for 28 days, endocrine lab data, Table 3

Q: What does the source list for `CC(=O)N/C(N)=N/C(=N\S(=O)(=O)c1ccc(C(F)(F)F)cc1)N1C[C@H](c2ccccc2)C(c2ccc(Cl)cc2)=N1` [INV-202, N-{[(S)-{[3-(4-chlorophenyl)-4-phenyl-4,5-dihydro-1H-pyrazol-1-yl][4-(trifluoromethyl)benzenesulfonamido]methylidene}amino]methanimidoyl}acetamide]?
A: C-peptide levels [1]: significant effects in reducing C-peptide levels; glucose AUC in an OGTT test [1]: decreased glucose AUC; insulin levels [1]: significant effects in reducing; ALT [1, 7]: significantly decreased ALT; liver triglyceride [1, 7]: significantly decreased; body weight ([1]; following 10 days of dosing): dose dependently reduce body weight; C-SSRS: Non-specific active suicidal thoughts [2]: 0; C-SSRS: Suicidal behaviour [2]: 0; C-SSRS: Wished to be dead [2]: 0; BMI, change from baseline ([3]; 25 mg oral daily for 28 days): −1.20 kg/m^2; HDL (%), change from baseline ([3]; 25 mg oral daily for 28 days): 0.13%; Triglycerides (%), change from baseline ([3]; 25 mg oral daily for 28 days): −7.9%; OGTT (0-3 hour AUC blood glucose), change from baseline ([3]; 25 mg oral daily for 28 days, 75 g glucose load, SD in next cell): 2.24 mmol·h/L; C-peptide, change from baseline [3, 8]: 0.036 nmol/L; HDL, change from baseline [3, 8]: 0.0015 mmol/L; HgbA1C, change from baseline [3, 8]: −0.005%; Insulin, change from baseline [3, 8]: -5.0 pmol/L; LDL, change from baseline [3, 8]: -0.50 mmol/L; Total Chol., change from baseline [3, 8]: -0.56 mmol/L; Triglycerides, change from baseline [3, 8]: -0.179 mmol/L; VLDL, change from baseline [3, 8]: -0.08 mmol/L; Waist, change from baseline [3, 8]: −1.91 cm; Weight (%), change from baseline [3, 8]: −3.33%; Weight, change from baseline [3, 8]: -3.50 kg; hs-CRP, change from baseline [3, 8]: -1.6 mg/L; Leptin (%) ([3]; 25 mg oral daily for 28 days, Table 3): −18%; Adiponectin [3, 9]: 0.15 mg/L; Leptin [3, 9]: -2.64 µg/L; T4 [3, 10]: 0.516 pmol/L; TSH [3, 10]: −0.014 mIU/L; eGFR (CKD-EPI 2021) ([3]; 25 mg oral daily for 28 days, renal lab data, Table 3): 3.23 mL/min/1.73 m2; maximum weight loss by percentage ([3]; after 28 days of treatment, individual patient maximum): 6%; lowest weight loss by percentage ([3]; after 28 days of treatment, individual patient minimum): 0.1%; average weight loss at first clinic visit ([3]; day 8, statistically significant): 1.4%; weight change of individual patients ([3]; every single patient on INV-202): lost weight; liver chemistry ([4]; all patients throughout the study): within normal limits; changes for bilirubin (total, direct, indirect) or transaminases (AST and ALT) ([4]; throughout the study): no significant changes; Diastolic Blood Pressure (DBP), change from baseline [5]: −0.25 mmHg; Heart Rate, change from baseline [5]: 2.3 bpm; Systolic Blood Pressure (SBP), change from baseline [5]: −4.65 mmHg; Temp, change from baseline [5]: −0.045 °C

Q: With `Cc1c(C(=O)NN2CCCCC2)nn(-c2ccc(Cl)cc2Cl)c1-c1ccc(Cl)cc1` [Rimonabant] as the molecule, how does the “efficacy in metabolic syndrome” value [6] read?
A: effective in treating metabolic syndrome

Q: And the side effects ([6]; resulted in withdrawal from the market)?
A: caused neuropsychiatric (i.e. CNS-related) side effects
